# Read-outs that look alike come from different tables or passages of the source.
# What was measured:
# [1] = Mouse blood (plasma) antibiotic levels after single intramuscular dose; assay type: in vivo; conditions: im, 40 mg/kg, mice, 40 mg./kg. i.m., Test 1 (Ave. of 6 mice tested), read-out: Blood Level
# Protocol: Plasma antibiotic levels from mice administered a single intramuscular dose of 40 mg./kg. of BL-[…] or carbenicillin are shown in the following table.
# Pseudomonas aeruginosa [2] = experiment: Minimum Inhibitory Concentration, agar dilution, overnight incubation at 37° C.; assay type: cell-based; conditions: for MIC: Pseudomonas aeruginosa
# Source text: A carbenicillin sample was also run for comparative purposes.
# Bacteroides fragilis = experiment: M.I.C. against anaerobic bacteria, Bacteroides fragilis; assay type: cell-based
# Cl. difficile = experiment: M.I.C. against anaerobic bacteria, Cl. difficile; assay type: cell-based; conditions: Clostridioides difficile
# Cl. ramosum = experiment: M.I.C. against anaerobic bacteria, Cl. ramosum; assay type: cell-based; conditions: Thomasclavelia ramosa
# Pseudomonas aeruginosa [3] = experiment: Minimum Bactericidal Concentration, inoculum 10^5 cells/ml., at least 99.9% kill; assay type: cell-based
# Source text: The effect of increased inoculum size on the bactericidal activity of BL-P1908 was investigated by a second test in which an inoculum size of 10^5 cells/ml. was used and the M.B.C. was defined as the lowest concentration of antibiotics in mcg./ml. needed to kill at least 99.9% of viable Pseudomonas cells.
# Cl. acidiurici = experiment: M.I.C. against anaerobic bacteria, Cl. acidiurici; assay type: cell-based; conditions: strain A9560
# Cl. cylindrosporum = experiment: M.I.C. against anaerobic bacteria, Cl. cylindrosporum; assay type: cell-based; conditions: strain A9562
# Cl. perfringens = experiment: microbe, parasite or virus in culture; assay type: cell-based; conditions: Clostridium perfringens
# Pseudomonas aeruginosa [4] = experiment: Minimum Bactericidal Concentration, inoculum 10^4 cells/ml., at least 99% kill; assay type: cell-based
# Protocol: The bactericidal in vitro activity of sodium D(-)-6-(α-(1,2,4-triazine-3,5-dione-6-carboxamido)-4-hydroxyphenylacetamido)penicillanate (BL-P1908) against several strains of Pseudomonas aeruginosa was determined under two sets of conditions. In one test the Minimum Bactericidal Concentrations (M.B.C.) were determined using an inoculum size of 10^4 cells/ml. and the M.B.C. was defined as the lowest concentration of antibiotic in mcg./ml. needed to kill at least 99% of the viable Pseudomonas cells.
# Cl. septicum = experiment: M.I.C. against anaerobic bacteria, Cl. septicum; assay type: cell-based; conditions: Clostridium septicum; strain A21869
# Pseudomonas aeruginosa [5] = experiment: animal or person; conditions: in Mus musculus, im
smiles,measurement,setting,value
"CC1(C)S[C@@H]2[C@H](NC(=O)C(C(=O)O)c3ccccc3)C(=O)N2[C@H]1C(=O)O (stereo partly shown) [Carbenicillin, reference compound]",concentration at 0.25 h,[1]; 15 min.,19100 ng/mL
same,concentration at 0.5 h,[1]; 30 min.,12500 ng/mL
same,concentration at 1 h,[1]; 60 min.,4000 ng/mL
same,concentration at 1.5 h,[1]; 90 min.,< 1400 ng/mL
same,M.I.C.,Pseudomonas aeruginosa [2],32 µg/mL
same,MIC,Pseudomonas aeruginosa [2]; strain A9502,63 µg/mL
same,MIC,Pseudomonas aeruginosa [2]; strain A9827,32 µg/mL
same,MIC,Pseudomonas aeruginosa [2]; strain A9910,32 µg/mL
same,MIC,Pseudomonas aeruginosa [2]; strain A9923,63 µg/mL
same,MIC,Pseudomonas aeruginosa [2]; strain A9924,63 µg/mL
same,MIC,Pseudomonas aeruginosa [2]; strain A9925,32 µg/mL
same,MIC,Pseudomonas aeruginosa [2]; strain A9926,63 µg/mL
same,MIC,Pseudomonas aeruginosa [2]; strain A9930,63 µg/mL
same,MIC,Pseudomonas aeruginosa [2]; strain A9931,63 µg/mL
same,MIC,Pseudomonas aeruginosa [2]; strain A15150,32 µg/mL
same,MIC,Pseudomonas aeruginosa [2]; strain A15151,32 µg/mL
same,MIC,Pseudomonas aeruginosa [2]; strain A15194,> 125 µg/mL
same,MIC,Pseudomonas aeruginosa [2]; strain A15195,63 µg/mL
same,MIC,Pseudomonas aeruginosa [2]; strain A15196,63 µg/mL
same,MIC,Pseudomonas aeruginosa [2]; strain A20125,63 µg/mL
same,MIC,Pseudomonas aeruginosa [2]; strain A20126,16 µg/mL
same,MIC,Pseudomonas aeruginosa [2]; strain A20127,63 µg/mL
same,MIC,Pseudomonas aeruginosa [2]; strain A20128,63 µg/mL
same,MIC,Pseudomonas aeruginosa [2]; strain A20129,63 µg/mL
same,MIC,Pseudomonas aeruginosa [2]; strain A20130,63 µg/mL
same,MIC,Pseudomonas aeruginosa [2]; strain A20228,63 µg/mL
same,MIC,Pseudomonas aeruginosa [2]; strain A20546,63 µg/mL
same,MIC,Pseudomonas aeruginosa [2]; strain A20557,> 125 µg/mL
same,MIC,Pseudomonas aeruginosa [2]; strain A20574,32 µg/mL
same,MIC,Pseudomonas aeruginosa [2]; strain A20602,63 µg/mL
same,MIC,Pseudomonas aeruginosa [2]; strain A20616,63 µg/mL
same,MIC,Pseudomonas aeruginosa [2]; strain A20641,63 µg/mL
same,MIC,Pseudomonas aeruginosa [2]; strain A20717,> 125 µg/mL
same,MIC,Pseudomonas aeruginosa [2]; strain A20726,63 µg/mL
same,MIC,Pseudomonas aeruginosa [2]; strain A21336,63 µg/mL
same,MIC,Bacteroides fragilis; strain A20920,2 µg/mL
same,MIC,Bacteroides fragilis; strain A20926,16 µg/mL
same,MIC,Bacteroides fragilis; strain A20927-1,2 µg/mL
same,MIC,Bacteroides fragilis; strain A20930,63 µg/mL
same,MIC,Bacteroides fragilis; strain A20933,32 µg/mL
same,MIC,Bacteroides fragilis; strain A20934,32 µg/mL
same,MIC,Bacteroides fragilis; strain A20935,32 µg/mL
same,MIC,Bacteroides fragilis; strain A21870,4 µg/mL
same,MIC,Bacteroides fragilis; strain A21871,32 µg/mL
same,MIC,Bacteroides fragilis; strain A21872,63 µg/mL
same,MIC,Bacteroides fragilis; strain A21875,16 µg/mL
same,MIC,Bacteroides fragilis; strain A22053,63 µg/mL
same,MIC,Bacteroides fragilis; strain A27020,> 125 µg/mL
same,MIC,Cl. difficile; strain A21675,32 µg/mL
same,MIC,Cl. difficile; strain A21972,32 µg/mL
same,MIC,Cl. ramosum; strain A21883,32 µg/mL
same,MIC,Cl. ramosum; strain A21970,32 µg/mL
same,MBC,Pseudomonas aeruginosa [3]; strain 9843A,125 µg/mL
same,MBC,Pseudomonas aeruginosa [3]; strain 9910,125 µg/mL
same,MBC,Pseudomonas aeruginosa [3]; strain 9926,125 µg/mL
same,MBC,Pseudomonas aeruginosa [3]; strain 20126,63 µg/mL
same,MBC,Pseudomonas aeruginosa [3]; strain 20128,125 µg/mL
same,MBC,Pseudomonas aeruginosa [3]; strain 20227,125 µg/mL
same,MBC,Pseudomonas aeruginosa [3]; strain 20228,63 µg/mL
same,MBC,Pseudomonas aeruginosa [3]; strain 20546,250 µg/mL
same,MBC,Pseudomonas aeruginosa [3]; strain 20557,250 µg/mL
same,MBC,Pseudomonas aeruginosa [3]; strain 20574,125 µg/mL
same,MBC,Pseudomonas aeruginosa [3]; strain 20602,250 µg/mL
same,MBC,Pseudomonas aeruginosa [3]; strain 20616,250 µg/mL
same,MBC,Pseudomonas aeruginosa [3]; strain 20641,125 µg/mL
same,MBC,Pseudomonas aeruginosa [3]; strain 20717,1000 µg/mL
same,MBC,Pseudomonas aeruginosa [3]; strain 20726,250 µg/mL
same,MBC,Pseudomonas aeruginosa [3]; strain 21336,125 µg/mL
same,MIC,Cl. acidiurici,0.5 µg/mL
same,MIC,Cl. cylindrosporum,0.5 µg/mL
same,MIC,Cl. perfringens; strain A21873,0.5 µg/mL
same,MIC,Cl. perfringens; strain A21874,0.5 µg/mL
same,MIC,Cl. perfringens; strain A21907,4 µg/mL
same,MBC,Pseudomonas aeruginosa [4]; strain 9843A,63 µg/mL
same,MBC,Pseudomonas aeruginosa [4]; strain 9910,32 µg/mL
same,MBC,Pseudomonas aeruginosa [4]; strain 9926,63 µg/mL
same,MBC,Pseudomonas aeruginosa [4]; strain 20126,63 µg/mL
same,MBC,Pseudomonas aeruginosa [4]; strain 20128,63 µg/mL
same,MBC,Pseudomonas aeruginosa [4]; strain 20227,63 µg/mL
same,MBC,Pseudomonas aeruginosa [4]; strain 20228,63 µg/mL
same,MBC,Pseudomonas aeruginosa [4]; strain 20546,63 µg/mL
same,MBC,Pseudomonas aeruginosa [4]; strain 20557,250 µg/mL
same,MBC,Pseudomonas aeruginosa [4]; strain 20574,63 µg/mL
same,MBC,Pseudomonas aeruginosa [4]; strain 20616,125 µg/mL
same,MBC,Pseudomonas aeruginosa [4]; strain 20641,125 µg/mL
same,MBC,Pseudomonas aeruginosa [4]; strain 20717,250 µg/mL
same,MBC,Pseudomonas aeruginosa [4]; strain 20726,125 µg/mL
same,MBC,Pseudomonas aeruginosa [4]; strain 21336,63 µg/mL
same,MIC,Cl. septicum,1 µg/mL
same,ED50,"Pseudomonas aeruginosa [5]; read-out: PD50 /treatment, P. aeruginosa A9843A, challenge 1 × 10^4, i.m., typical figures based on several tests",100 mg/kg
same,ED50,"Pseudomonas aeruginosa [5]; read-out: PD50 /treatment, P. aeruginosa A9843A, challenge 2 × 10^4, i.m., typical figures based on several tests",100 mg/kg
same,ED50,"Pseudomonas aeruginosa [5]; read-out: PD50 /treatment, P. aeruginosa A9843A, challenge 3 × 10^4, i.m., at 0 and 2 hours",130 mg/kg
same,ED50,"Pseudomonas aeruginosa [5]; read-out: PD50 /treatment, P. aeruginosa A20599, challenge 3 × 10^4, i.m., at 0 and 2 hours",100 mg/kg
same,ED50,"Pseudomonas aeruginosa [5]; read-out: PD50 /treatment, P. aeruginosa A20599, challenge 6 × 10^4, i.m., at 0 and 2 hours",130 mg/kg
